Test results as given in ChEMBL document CHEMBL4330075, “Discovery of Novel Quinoline-Chalcone Derivatives as Potent Antitumor Agents with Microtubule Polymerization Inhibitory Activity” (J Med Chem, 2019).
≈ marks a conversion by molar mass, not a printed value.

Assays:
K562 [1] = test: Induction of apoptosis in human K562 assessed as early apoptotic cells at 10 nM after 48 hrs by Annexin V-APC/propidium iodide staining-based flow cytometric analysis (reference value: 4.44%); assay type: functional
[2] = Toxicity in ICR mouse assessed as mouse survival at 512 mg/kg, iv for 14 days relative to control; assay type: organism-based; conditions: in vivo
K562 [3] = test: Cell cycle arrest in human K562 cells assessed as accumulation of cells at G2 phase at 20 nM after 48 hrs by propidium iodide staining-based flow cytometric analysis (reference value: 15.82%); assay type: functional
K562 [4] = test: Cell cycle arrest in human K562 cells assessed as accumulation of cells at G1 phase at 5 nM after 48 hrs by propidium iodide staining-based flow cytometric analysis (reference value: 47.91%); assay type: functional
K562 [5] = test: Induction of apoptosis in human K562 assessed as necrotic cells at 10 nM after 48 hrs by Annexin V-APC/propidium iodide staining-based flow cytometric analysis (reference value: 1.92%); assay type: functional
[6] = Renal toxicity in ICR mouse xenografted with […] cells at 10 to 20 mg/kg, iv qd for 21 consecutive days by H and E staining-based assay; assay type: organism-based; conditions: in vivo
[7] = Selectivity index, ratio of IC50 for human LO2 cells to IC50 for human HepG2 cells; assay type: toxicity; conditions: LO2 cells and HepG2 cells, read-out: Ratio IC50
[8] = Toxicity in ICR mouse xenografted with […] cells assessed as decrease in body weight at 10 to 20 mg/kg, iv qd administered for 21 days and measured every 2 days; assay type: organism-based; conditions: in vivo
K562 [9] = test: Induction of mitochondrial membrane potential disruption in human K562 cells assessed as intact mitochondrial membrane potential at 10 nM after 48 hrs by JC-1 staining-based flow cytometric analysis (reference value: 99.12%); assay type: functional
K562 [10] = test: Induction of apoptosis in human K562 assessed as viable cells at 5 nM after 48 hrs by Annexin V-APC/propidium iodide staining-based flow cytometric analysis (reference value: 92.34%); assay type: functional; conditions: K562, 48 h, read-out: Activity
K562 [11] = test: Induction of apoptosis in human K562 assessed as early apoptotic cells at 5 nM after 48 hrs by Annexin V-APC/propidium iodide staining-based flow cytometric analysis (reference value: 4.44%); assay type: functional
HepG2 = test: cells; conditions: Homo sapiens, HepG2, 72 h
K562 [12] = test: Cell cycle arrest in human K562 cells assessed as accumulation of cells at S phase at 5 nM after 48 hrs by propidium iodide staining-based flow cytometric analysis (reference value: 36.27%); assay type: functional
[13] = Toxicity in ICR mouse xenografted with […] cells assessed as effect on lung at 10 to 20 mg/kg, iv qd for 21 consecutive days by H and E staining-based assay; assay type: organism-based; conditions: in vivo
[14] = Toxicity in ICR mouse assessed as mouse survival at 409.6 mg/kg, iv for 14 days relative to control; assay type: organism-based; conditions: in vivo
[15] = Toxicity in ICR mouse assessed as mouse survival at 1000 mg/kg, iv for 14 days relative to control; assay type: organism-based; conditions: in vivo
K562 [16] = test: Induction of apoptosis in human K562 assessed as early apoptotic cells at 20 nM after 48 hrs by Annexin V-APC/propidium iodide staining-based flow cytometric analysis (reference value: 4.44%); assay type: functional
K562 [17] = test: Induction of apoptosis in human K562 assessed as viable cells at 20 nM after 48 hrs by Annexin V-APC/propidium iodide staining-based flow cytometric analysis (reference value: 92.34%); assay type: functional; conditions: K562, 48 h, read-out: Activity
MDA-MB-231 = test: Antiproliferative activity against human MDA-MB-231 cells after 72 hrs by MTT assay; assay type: functional, cell-based; conditions: MDA-MB-231, 72 h
K562 [18] = test: Induction of apoptosis in human K562 assessed as necrotic cells at 20 nM after 48 hrs by Annexin V-APC/propidium iodide staining-based flow cytometric analysis (reference value: 1.92%); assay type: functional
K562 [19] = test: Induction of mitochondrial membrane potential disruption in human K562 cells assessed as collapsed mitochondrial membrane potential at 5 nM after 48 hrs by JC-1 staining-based flow cytometric analysis (reference value: 0.63%); assay type: functional
[20] = Aqueous solubility in pH 7.4 phosphate buffer by HPLC analysis; assay type: physicochemical
K562 [21] = test: Induction of mitochondrial membrane potential disruption in human K562 cells assessed as collapsed mitochondrial membrane potential at 10 nM after 48 hrs by JC-1 staining-based flow cytometric analysis (reference value: 0.63%); assay type: functional
HCT-8 = test: Antiproliferative activity against human HCT8 cells after 72 hrs by MTT assay; assay type: functional, cell-based; conditions: HCT-8, 72 h
K562 [22] = test: Induction of mitochondrial membrane potential disruption in human K562 cells assessed as intact mitochondrial membrane potential at 5 nM after 48 hrs by JC-1 staining-based flow cytometric analysis (reference value: 99.12%); assay type: functional
K562 [23] = test: Induction of mitochondrial membrane potential disruption in human K562 cells assessed as intact mitochondrial membrane potential at 20 nM after 48 hrs by JC-1 staining-based flow cytometric analysis (reference value: 99.12%); assay type: functional
[24] = Cytotoxicity against human MDA-MB-231 cells assessed as growth inhibition at 10 nM after 48 hrs; assay type: cell-based; conditions: read-out: GI
[25] = Toxicity in ICR mouse assessed as mouse survival at 800 mg/kg, iv for 14 days relative to control; assay type: organism-based; conditions: in vivo
K562 [26] = test: Induction of apoptosis in human K562 assessed as viable cells at 10 nM after 48 hrs by Annexin V-APC/propidium iodide staining-based flow cytometric analysis (reference value: 92.34%); assay type: functional; conditions: K562, 48 h, read-out: Activity
[27] = Antitumor activity against […] H22 cells xenografted in ICR mouse assessed as reduction in tumor weight at 20 mg/kg, iv qd for 21 consecutive days and measured every 2 days relative to control; assay type: functional; design: scale not given: the % may be the effect or the level left
K562 [28] = test: Cell cycle arrest in human K562 cells assessed as accumulation of cells at G2 phase at 5 nM after 48 hrs by propidium iodide staining-based flow cytometric analysis (reference value: 15.82%); assay type: functional
Tubulin = Tubulin (Sus scrofa, UniProt P02554+P02550); test: Inhibition of porcine brain tubulin polymerization measured every 2 mins for 60 mins by spectrophotometric analysis
[29] = Toxicity in ICR mouse xenografted with […] cells assessed as effect on spleen at 10 to 20 mg/kg, iv qd for 21 consecutive days by H and E staining-based assay; assay type: organism-based; conditions: in vivo
K562 [30] = test: Induction of apoptosis in human K562 assessed as late apoptotic cells at 10 nM after 48 hrs by Annexin V-APC/propidium iodide staining-based flow cytometric analysis (reference value: 1.30%); assay type: functional
K562 [31] = test: Cell cycle arrest in human K562 cells assessed as accumulation of cells at G1 phase at 20 nM after 48 hrs by propidium iodide staining-based flow cytometric analysis (reference value: 47.91%); assay type: functional
[32] = Hepatotoxicity in ICR mouse xenografted with […] cells at 10 to 20 mg/kg, iv qd for 21 consecutive days by H and E staining-based assay; assay type: toxicity, organism-based; conditions: in vivo
K562 [33] = test: Cell cycle arrest in human K562 cells assessed as accumulation of cells at S phase at 20 nM after 48 hrs by propidium iodide staining-based flow cytometric analysis (reference value: 36.27%); assay type: functional

Q: With `COc1ccc(/C=C(\C)C(=O)c2cc(C)nc3ccccc23)cc1O` as the compound, how does the Activity (K562 [1]) read?
A: 23.15%

Q: What about the survival at 336 h [2] of the same compound?
A: 80%

Q: And the Activity (K562 [3])?
A: 26.98%

Q: What about the Activity (K562 [4]) of the same compound?
A: 50.41%

Q: And the Activity (K562 [5])?
A: 2.77%

Q: What about the Activity [6] of the same compound?
A: Non-Toxic

Q: And the selectivity ratio [7]?
A: 65.8

Q: What about the Activity [8] of the same compound?
A: Non-Toxic

Q: And the Activity (K562 [9])?
A: 73.8%

Q: What about the viability at 0.005 µM (K562 [10]) of the same compound?
A: 80.2%

Q: And the Activity (K562 [11])?
A: 12.87%

Q: What about the IC50 (HepG2) of the same compound?
A: 15 nM

Q: And the Activity (K562 [12])?
A: 31.55%

Q: And the Activity [13]?
A: Non-Toxic

Q: And the survival at 336 h [14]?
A: 90%

Q: And the survival at 336 h [15]?
A: 10%

Q: And the Activity (K562 [16])?
A: 36.86%

Q: And the viability at 0.02 µM (K562 [17])?
A: 35%

Q: And the IC50 (MDA-MB-231)?
A: 15 nM

Q: What about the Activity (K562 [18]) of the same compound?
A: 4.86%

Q: What about the Activity (K562 [19]) of the same compound?
A: 15.02%

Q: And the solubility [20]?
A: 16 µg/mL (≈ 48 µM)

Q: And the Activity (K562 [21])?
A: 26.2%

Q: And the IC50 (HCT-8)?
A: 15 nM

Q: And the Activity (K562 [22])?
A: 84.97%

Q: What about the Activity (K562 [23]) of the same compound?
A: 46.39%

Q: What about the inhibition at 48 h, 0.01 µM [24] of the same compound?
A: < 10%

Q: What about the survival at 336 h [25] of the same compound?
A: 30%

Q: What about the viability at 0.01 µM (K562 [26]) of the same compound?
A: 62.7%

Q: And the Activity [27]?
A: 65.3%

Q: What about the Activity (K562 [28]) of the same compound?
A: 18.04%

Q: And the IC50 (Tubulin)?
A: 1710 nM

Q: What about the Activity [29] of the same compound?
A: Non-Toxic

Q: What about the Activity (K562 [30]) of the same compound?
A: 11.4%

Q: And the Activity (K562 [31])?
A: 42.68%

Q: What about the Activity [32] of the same compound?
A: Non-Toxic

Q: What about the Activity (K562 [33]) of the same compound?
A: 30.35%
